Assay results reported in patent US20130184462A1, “METHOD FOR PREDICTING AND MODELING ANTI-PSYCHOTIC ACTIVITY USING VIRTUAL SCREENING MODEL” (COUNCIL OF SCIENTIFIC & INDUSTRIAL RESEARCH, priority 2010, published 2013).

Each molecule was assayed on amphetamine induced hyperactivity mice model (assay: Amphetamine induced hyperactivity mouse model). Details: in-vitro and in-vivo evaluation, FIGS. 3 and 4.
Description: The animals were housed in plastic polypropylene cages under standard animal house conditions with a 12 hours light/dark cycle and temperature of 25±2° C.
The mice randomly grouped in batches of seven animals per group. The basal motor activity (distance traveled) of each mouse was recorded individually using automated activity monitor (TSE, Germany). After basal activity recording, a group of seven animals were challenged with amphetamine [5.5 mg/kg, intra peritoneal (i.p) dissolved in normal saline]. After 30 min. amphetamine injection, motor activity was recorded for individual animal for 5 min.
The difference in motor activity as indicated by distance traveled in animals with amphetamine alone treated and animals with samples plus amphetamine challenge was recorded as inhibition in hyper activity caused by amphetamine and data presented as percent inhibition in amphetamine induced hyperactivity.
For `COC(=O)C1C(OC(C)=O)CCC2CN3CCc4c([nH]c5ccccc45)C3CC21` (stereo not drawn) [K001A, 17-O-acetyl α-yohimbine], the “antipsychotic activity in-vitro and in-vivo” value was “potential antipsychotic activity”.
For `COC(=O)C1C(OC(=O)c2cccc([N+](=O)[O-])c2)CCC2CN3CCc4c([nH]c5ccccc45)C3CC21` (stereo not drawn) [K001C, 17-O-(3″)-nitrobenzoyl α-yohimbine], the “antipsychotic activity in-vitro and in-vivo” value was “potential antipsychotic activity”.
`COC(=O)C1C(OC(=O)c2ccc([N+](=O)[O-])cc2)CCC2CN3CCc4c([nH]c5ccccc45)C3CC21` (stereo not drawn) [K001E, 17-O-(4″)-nitrobenzoyl-α-yohimbine] was tested, and the “antipsychotic activity in-vitro and in-vivo” value was “potential antipsychotic activity”.
With `COC(=O)C1C(OC(=O)C=Cc2ccccc2)CCC2CN3CCc4c([nH]c5ccccc45)C3CC21` (stereo not drawn) [K001F, 17-O-cinnamoyl α-yohimbine] the “antipsychotic activity in-vitro and in-vivo” value was “potential antipsychotic activity”.
